Each structure is given as a SMILES string.

One molecule from publication PMC13021670, “Novel small molecule targeting PgQC reduces Porphyromonas gingivalis virulence” (Frontiers in Oral Health, 2026) can be followed below.

This experiment has as its target T1, P. gingivalis glutaminyl cyclase (PgQC) (Porphyromonas gingivalis, UniProt Q7MT37).
T1 construct: gene PG_2157; Recombinant P. gingivalis glutaminyl cyclase
As to the kind of experiment: fluorogenic enzyme assay with H-Gln-AMC, recombinant purified PgQC ([…]), fit to competitive inhibition. The experiment is classed as biochemical.

T1 sequence (Q7MT37 entry or part of it): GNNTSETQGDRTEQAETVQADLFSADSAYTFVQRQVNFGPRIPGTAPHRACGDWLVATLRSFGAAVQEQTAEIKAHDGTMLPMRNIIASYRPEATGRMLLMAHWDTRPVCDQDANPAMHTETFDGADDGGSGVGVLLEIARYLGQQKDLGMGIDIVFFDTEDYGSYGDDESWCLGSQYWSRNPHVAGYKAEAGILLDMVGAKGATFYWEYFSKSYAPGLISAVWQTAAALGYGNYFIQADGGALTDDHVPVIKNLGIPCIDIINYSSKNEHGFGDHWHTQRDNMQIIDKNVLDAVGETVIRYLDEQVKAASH

With `N=C(N)NCCOc1ccc(CNc2cnc3nc[nH]c3c2)cc1` [S-0636, 1-(2-(4-((lmidazo[4,5-b]pyridin-6-ylamino)methyl)-phenoxy)ethyl)guanidine], the Ki (commonly the equilibrium dissociation constant of an inhibitor or competing ligand from its target) was 14 nM.
